Assay results as given in US8557864B2, “Agent having neurotrophic factor-like activity” (Nagoya Industrial Science Research Institute, priority 2007, dated 2013).

What was measured:
[1] = Measurement of weights of mice before and after stress; format: in vivo; conditions: 3 weeks with stress
From the text: A weight of a mouse before stress was subtracted from the weight of the mouse immediately after administering the compound 8 as well as stress for 3 weeks to obtain a weight gap (g).

MAP kinase = assay: Phosphorylated MAP kinase amount in cortex of frontal lobe and hippocampus of stressed mice; format: in vivo; conditions: 24 hours after 3 weeks of stress with 20, 100, 500 μg/kg, at least one administration example
Experimental: After 24 hours from completion of stress for 3 weeks in the same method as described in Example 2, mice administered with the compound 8 in doses of 0, 20, 100 and 500 μg/kg respectively at the same time as stress and non-stressed mice administered with only a phosphoric acid buffer containing 0.1% DMSO were sacrificed and the cortexes of frontal lobes and hippocampi were excised respectively, and thereto were added RIPA buffers in 19 times of an amount of each wet weight.
Then, sonication was performed by an ultrasonic grinder until tissues cannot be seen, centrifuged at 12000 rpm for 15 minutes, and the supernatant was recovered to form a tissue protein extraction solution. The protein concentration of the extraction solution was measured using a BCA Protein Assay Kit (TAKARA BIO INC.), each of extraction solutions containing 3 μg for a MAP kinase and 5 μg for a phosphorylated MAP kinase was added with a ⅓ amount of a sample buffer for electrophoresis at 4 times of a concentration, and a 1/10 amount of 2-mercaptoethanol and thermally treated at 95° C. for 5 minutes and subjected to electrophoresis with a 10% SDS polyacrylic amide gel. […]

[2] = system: mRNAs of BDNF, NT-3, NGF and GR; assay: mRNA expression of neurotrophic factors and glucocorticoid receptor in cortex of frontal lobe and hippocampus; format: in vivo, mice; conditions: 24 hours after 3 weeks of stress with compound 8, RT-PCR relative to β actin
Experimental: mRNA expressions of a brain-derived neurotrophic factor (hereinafter expressed as “BDNF”), neurotrophin-3 (hereinafter expressed as “NT-3”), a nervous growth factor (hereinafter expressed as “NGF”) and a glucocorticoid receptor (hereinafter expressed as “GR”) in a cortex of frontal lobe and a hippocampus of a mouse after stress were examined as follows. After 24 hours from completion of stress for 3 weeks in the same method as described in Example 2, mice administered with the compound 8 in each of the amounts of 0, 20, 100 and 500 μg/kg, at the same time as stress, and non-stressed mice administered with only a phosphoric acid buffer containing 0.1% DMSO were sacrificed and the cortexes of frontal lobes and hippocampi were excised respectively, and thereto were added TriZol. […]
The obtained precipitate was washed with 70% ethanol, dried and then dissolved in TE to form a total RNA sample. […] The fluorescence intensity of the band was read with a densitometer to digitalize and the obtained value was divided with a fluorescence intensity of a band of RT-PCR of β actin mRNA of an internal standard, which has been found separately, and a graph was formed assuming that the band value of a non-stressed mouse/β actin band value was 1.0. […]

[3] = system: mice under chronic mild stress; assay: Tail suspension test comparing compound 8 and fluvoxamine after chronic mild stress; format: in vivo; conditions: Exp. 2 (1 week after stress); compound 8 500 μg/kg, fluvoxamine 1000 μg/kg intraperitoneally once per day
Experimental: 7-week-old male ddY strain mice fed in one cage for 4 mice were first subjected to forced swimming for 15 minutes in the same manner as stress in Example 2 (behavior test of mice under stress) (1) described in the paragraph [0063] in the specification. Then, stress for 1 week using 3 kinds of cages was regarded as 1 cycle, and the stress was applied for 3 cycles (3 weeks) and chronic mild stress (CMS) was applied. The compound 8 and fluvoxamine were administered to mice immediately after stress in Exp. 1, 1 week after stress in Exp. 2, and 2 weeks after stress in Exp. 3, respectively, and tail suspension tests were carried out on the respective test groups. In each test group, the compound 8 was adjusted in concentration so as to have each of the doses of […] and fluvoxamine was adjusted in concentration so as to have a dose of 1000 μg/kg, by dissolving in 0.1% DMSO, and each dose of the compound 8 and fluvoxamine were intraperitoneally injected to mice once per day from the time immediately after stress. Further, to 7-week-old male ddY strain mice fed in one cage for 4 mice without stress, the compound 8 and fluvoxamine were administered to carry out the tail suspension tests in the same manner as the stressed mice. FIG. 31 show the result. A significance test was performed in a Student's t-test (*). […] “DAEE” denotes the compound 8 and “Flu” denotes fluvoxamine.

## CCCCCCC/C=C/C(=O)OCC [Compound 8, trans-2-decenoic acid ethyl ester]
[1]; 500 μg/kg administration group
  weight gap, stressed vs non-stressed example: no significant difference
[1]; compound 8 administration groups
  ratio of weight decrease in stressed examples compared to control (PBS): less
MAP kinase
  phosphorylated MAP kinase amount compared to control (0 μg/kg): significantly increased
[2]
  expression of mRNAs of BDNF, NT-3, NGF and GR: returned to the level of non-stressed examples
[3]
  effect on depressive symptom (immobility time): had an effect
